Measured values reported in publication PMC11130353, “Using host-mimicking conditions and a murine cutaneous abscess model to identify synergistic antibiotic combinations effective against Pseudomonas aeruginosa” (Frontiers in Cellular and Infection Microbiology, 2024).
Values after ≈ are worked out from the molar mass of the structure shown. Where two headings read alike, the source gives them in different places. Peptide text beside a SMILES is read from it.

Key:
[1] = tested on: P. aeruginosa LESB58; experiment: microbe, parasite or virus in culture; assay type: cell-based, Pseudomonas aeruginosa; settings: for MIC: Pseudomonas aeruginosa
Description: (§1) For susceptibility testing under standard conditions, bacteria were cultured in Muller Hinton Broth MHB (Fort Richards Laboratories). […] Further susceptibility testing was also conducted in MHB supplemented with FBS (5% v/v) and DMEM supplemented with glucose (1% w/v) and MHB (10% v/v).
The minimum inhibitory concentration (MIC) of each antibiotic was determined using the broth microdilution method in 96-well plates. […] Briefly, antibiotics were two-fold serially diluted in MHB or TCM prior to adding 1 × 10^6 CFU mL^-1 bacteria. […] The MIC was recorded as the lowest antibiotic concentration with no visible growth and the median value of at least three biological replicates reported.

[2] = Description: Mice used in this study were female Swiss Webster aged approximately 6-7 weeks and sourced from the University of Otago Biomedical Research Facility. […] Briefly, the fur on the back of each mouse was removed by shaving and chemical depilation. Antibiotics were tested for skin toxicity by injecting 50 μL of antibiotic suspension subcutaneously into naïve mice, and subsequent inspection of the skin for inflammation on the next day. P. aeruginosa LESB58 was grown to mid-log phase in dYT broth, washed twice in sterile PBS (Gibco, pH 7.4), and resuspended in PBS to ~1 x 10^8 CFU per 50 μL inoculum. The bacterial suspension (50 μL) was injected subcutaneously into the right side of the dorsum, followed one hour later by 50 μL of antibiotic treatment injected directly into the infected area. […] Combination treatments were administered as a single 50 μL injection containing both antibiotics. The concentration of each antibiotic in the combination was the same as when it was used alone. Progression of the infection was monitored daily, and abscess dimensions were measured on day three using a calliper. On day three, abscess tissue and pus were excised, homogenized in sterile PBS using SPEX SamplePrep 1600 MiniG for five minutes and bacterial CFU counts determined by serial dilution.
[3] = tested on: P. aeruginosa LESB58; experiment: Murine high density subcutaneous skin abscess model; assay type: in vivo, Pseudomonas aeruginosa; settings: for CFU per abscess, Fold change / Area of dermoncecrosis, % reduction: compared to the vehicle control; for CFU per abscess, Fold change / Area of dermoncecrosis, % reduction / CFU per abscess, Geometric mean / Area of dermoncecrosis, Mean: day 3; for Area of dermoncecrosis, Mean: female Swiss Webster mice
Description: Mice used in this study were female Swiss Webster aged approximately 6-7 weeks and sourced from the University of Otago Biomedical Research Facility. […] The subcutaneous abscess infection model was performed as previously described ([Pletzer et al., 2017]) with a higher inoculum. Briefly, the fur on the back of each mouse was removed by shaving and chemical depilation. Antibiotics were tested for skin toxicity by injecting 50 μL of antibiotic suspension subcutaneously into naïve mice, and subsequent inspection of the skin for inflammation on the next day. P. aeruginosa LESB58 was grown to mid-log phase in dYT broth, washed twice in sterile PBS (Gibco, pH 7.4), and resuspended in PBS to ~1 x 10^8 CFU per 50 μL inoculum. The bacterial suspension (50 μL) was injected subcutaneously into the right side of the dorsum, followed one hour later by 50 μL of antibiotic treatment injected directly into the infected area. […] Combination treatments were administered as a single 50 μL injection containing both antibiotics. The concentration of each antibiotic in the combination was the same as when it was used alone. Progression of the infection was monitored daily, and abscess dimensions were measured on day three using a calliper. On day three, abscess tissue and pus were excised, homogenized in sterile PBS using SPEX SamplePrep 1600 MiniG for five minutes and bacterial CFU counts determined by serial dilution. In this model, synergy was defined as being a significant difference between the combination treated group and the amalgamated group of single drug treated animals ([Fantin and Carbon, 1992]; [Pletzer et al., 2018]).
Statistical analysis was performed using GraphPad Prism 9.5.1. Bacterial CFU and abscess size data from in vivo experiments was analysed by Kruskal-Wallace test with Dunn’s correction for multiple comparisons. The data was considered significant when p-values were below 0.05 or 0.01 as indicated.

[4] = tested on: P. aeruginosa LESB58-lux; experiment: In vitro synergy, checkerboard assay (luminescence readout); assay type: cell-based, Pseudomonas aeruginosa; settings: LESB58-lux; for FICI, drug combined with CAZ / FICI, drug combined with CZA: FICI <= 0.5 indicates synergy
Description: (§2) For susceptibility testing under standard conditions, bacteria were cultured in Muller Hinton Broth MHB (Fort Richards Laboratories). Host mimicking conditions in vitro were simulated using tissue culture medium (TCM) consisting of Dulbecco’s modified Eagle medium (DMEM; Gibco #11965) supplemented with FBS (Moregate Biotech) (5% v/v) and glucose (1% w/v). Further susceptibility testing was also conducted in MHB supplemented with FBS (5% v/v) and DMEM supplemented with glucose (1% w/v) and MHB (10% v/v).
(§3) The P. aeruginosa LESB58.lux strain was used for in vitro synergy experiments with azithromycin in MHB and all antibiotic combinations in TCM to determine bacterial growth (as visual inspection and absorbance measurements were unreliable). Synergy was determined using the checkerboard method ([Berenbaum, 1978]; [Pletzer and Hancock, 2018]) in at least triplicate. Each antibiotic was two-fold serially diluted in sterile water before transferring to a 96-well plate containing 1 × 10^6 CFU mL^-1 bacteria in MHB or TCM. Plates were incubated at 37°C for 22-24 hours. The MIC alone or in combination was recorded as the lowest antibiotic concentration with no visible growth. For experiments using the LESB58.lux strain no visible growth was defined as an at least 95% reduction compared to the no antibiotic growth control in luminescence detected using a ClarioStar plate reader. The fractional inhibitory concentration index (FICI) was calculated as [(MICA in combination)/MICA] + [(MICB in combination)/MICB]. FICI values of 0.5 or below indicated synergy, while values above 0.5 up to and including 1 were taken to indicate additivity. FICI values above 1 indicate indifference or antagonism ([Odds, 2003]).

[5] = tested on: P. aeruginosa PAO1; experiment: Minimum inhibitory concentration, broth microdilution; assay type: cell-based, Pseudomonas aeruginosa; settings: for Fold change TCM vs MHB (MIC): MIC in TCM vs MIC in MHB; for MIC: Pseudomonas aeruginosa, PAO1
Description: as §1
The minimum inhibitory concentration (MIC) of each antibiotic was determined using the broth microdilution method in 96-well plates. […] Briefly, antibiotics were two-fold serially diluted in MHB or TCM prior to adding 1 × 10^6 CFU mL^-1 bacteria. Plates were incubated at 37°C for 22-24 hours. The MIC was recorded as the lowest antibiotic concentration with no visible growth and the median value of at least three biological replicates reported.

[6] = tested on: P. aeruginosa LESB58; experiment: In vitro synergy, checkerboard assay; assay type: cell-based, Pseudomonas aeruginosa; settings: MHB
Description: as §2, §3

[7] = 50 μL injected subcutaneously, skin inspected next day
[8] = Azithromycin group, CAZ or CZA 50 mg/mL, AZM 6.25 mg/mL
[9] = Colistin, tigecycline and tobramycin groups

SMILES: CC[C@H]1OC(=O)[C@H](C)[C@@H](O[C@H]2C[C@@](C)(OC)[C@@H](O)[C@H](C)O2)[C@H](C)[C@@H](O[C@@H]2O[C@H](C)C[C@H](N(C)C)[C@H]2O)[C@](C)(O)C[C@@H](C)CN(C)[C@H](C)[C@@H](O)[C@]1(C)O [AZM, azithromycin]
- Fold change TCM vs MHB (MIC) ([1]; MIC in TCM vs MIC in MHB): -100
- MIC ([1]; LESB58, read-out: MIC in MHB, MHB, 20-24 h): 62.5 µg/mL (≈ 83.4 µM)
- MIC ([1]; LESB58, read-out: MIC in TCM, TCM (DMEM + 1% glucose + 5% FBS), 20-24 h): 0.625 µg/mL
- Fold increase of efficacy in TCM compared to MHB ([1]; host mimicking TCM vs MHB): 100
- Highest tolerated dose tested [2, 7]: 25 mg/mL
- Toxic (visible skin irritation, inflammation, blood vessels, swelling) ([2]; female, Swiss Webster, mouse, in vivo, sc, 1 day): 50 mg/mL
- Fold reduction of bacterial load (CFU) relative to vehicle ([3]; Azithromycin experiments): ~ 42
- CFU per abscess, Fold change ([3]; Azithromycin group): -42.1
- Area of dermoncecrosis, % reduction [3, 8]: 36.4%
- Area of dermoncecrosis, % reduction ([3]; Azithromycin group, CAZ or CZA 50 mg/mL, AZM 6.25 mg/mL, listed as azithromycin): 36%
- CFU per abscess, Geometric mean [3, 8]: 8.5 × 10^6 CFU per abscess
- Area of dermoncecrosis, Mean ([3]; Azithromycin group, 50 μL s.c. into infected area 1 h after infection, CAZ or CZA 50 mg/mL, AZM 6.25 mg/mL, vehicle citric acid in saline): 64.5 mm^2
- Fold decrease in CAZ MIC, drug combined with CAZ ([4]; MHB): 4
- Fold decrease in CZA MIC, drug combined with CZA ([4]; MHB): 4
- Fold decrease in other MIC, drug combined with CAZ ([4]; MHB): 4
- Fold decrease in other MIC, drug combined with CZA ([4]; MHB): 2
- FICI, drug combined with CAZ ([4]; MHB): 0.5
- FICI, drug combined with CZA ([4]; MHB): 0.75
- FICI, drug combined with CZA ([4]; MHB, listed as azithromycin): did not act synergistically
- Fold decrease in CAZ MIC, drug combined with CAZ ([4]; TCM): 8
- Fold decrease in CZA MIC, drug combined with CZA ([4]; TCM): 2
- Fold decrease in other MIC, drug combined with CAZ ([4]; TCM): 2
- Fold decrease in other MIC, drug combined with CZA ([4]; TCM): 2
- FICI, drug combined with CAZ ([4]; TCM): 0.625
- FICI, drug combined with CZA ([4]; TCM): 1
- Fold change TCM vs MHB (MIC) [5]: >-300
- MIC ([5]; read-out: MIC in MHB): 250 µg/mL (≈ 334 µM)
- MIC ([5]; read-out: MIC in TCM): < 0.78 µg/mL

SMILES: CC[C@H](C)CCCCC(=O)N[C@@H](CCN)C(=O)N[C@H](C(=O)N[C@@H](CCN)C(=O)N[C@H]1CCNC(=O)[C@H]([C@@H](C)O)NC(=O)[C@H](CCN)NC(=O)[C@H](CCN)NC(=O)[C@H](CC(C)C)NC(=O)[C@@H](CC(C)C)NC(=O)[C@H](CCN)NC1=O)[C@@H](C)O [CST, colistin] (HELM PEPTIDE1{[CC[C@H](C)CCCCC(=O)[*:2]].[Dab].T.[Dab].[Dab].[Dab].[dL].L.[Dab].[Dab].T}$PEPTIDE1,PEPTIDE1,5:R3-11:R2$$$V2.0)
- MIC in MHB ([1]; MHB, 20-24 h): 3.13 µg/mL (≈ 2.68 µM)
- MIC in TCM ([1]; TCM (DMEM + 1% glucose + 5% FBS), 20-24 h): 12.5 µg/mL
- Highest tolerated dose tested [2, 7]: 2 mg/mL
- Toxic (visible skin irritation, inflammation, blood vessels, swelling) [2, 7]: 5 mg/mL
- Fold decrease in CAZ MIC, drug combined with CAZ [6]: 4
- Fold decrease in CZA MIC, drug combined with CZA [6]: 4
- Fold decrease in other MIC, drug combined with CAZ [6]: 8
- Fold decrease in other MIC, drug combined with CZA [6]: 8
- FICI, drug combined with CAZ ([6]; FICI <= 0.5 indicates synergy): 0.38
- Area of dermoncecrosis, Mean ([3]; Colistin, tigecycline and tobramycin groups (shared vehicle, CAZ and CZA mice), 50 μL s.c. 1 h after infection, CAZ or CZA 50, CST 1.25, TGC 2.5, TOB 2 mg/mL, vehicle 0.9% saline): 38.6 mm^2
- Area of dermoncecrosis, % reduction [3, 9]: 58.9%
- CFU per abscess, Fold change [3, 9]: -107.4
- Area of dermoncecrosis, % reduction ([3]; Colistin, tigecycline and tobramycin groups, listed as colistin): 59%
- CFU per abscess, Geometric mean [3, 9]: 2.3 × 10^6 CFU per abscess
- Fold reduction of bacterial load (CFU) relative to vehicle ([3]; Colistin, tigecycline, tobramycin experiments): ~107
- Fold decrease in CAZ MIC, drug combined with CAZ ([4]; TCM): 8
- Fold decrease in CZA MIC, drug combined with CZA ([4]; TCM): 4
- Fold decrease in other MIC, drug combined with CAZ ([4]; TCM): 4
- Fold decrease in other MIC, drug combined with CZA ([4]; TCM): 4
- FICI, drug combined with CAZ ([4]; TCM): 0.38
- FICI, drug combined with CZA ([4]; TCM): 0.5
- FICI, drug combined with CAZ ([4]; TCM, listed as colistin): synergised
- FICI, drug combined with CZA ([4]; TCM, listed as colistin): synergised
- MIC in MHB ([5]; MHB): 2.5 µg/mL (≈ 2.14 µM)
- Fold change TCM vs MHB (MIC) [5]: 10
- MIC in TCM ([5]; TCM): 25 µg/mL (≈ 21.4 µM)
